{"source": "paper PMC13266999", "about": "“Designing Antibiotics with Inherent Resistance to Efflux as a Strategy to Revive Discovery against Multidrug-Resistant Pathogens” (Journal of Medicinal Chemistry, 2026)", "key": {"[1]": {"system": "K. pneumoniae", "assay": "Mutation frequency and agar MIC", "type": "cell-based", "conditions": "M6"}, "[2]": {"target": "T1, COX2(h) (Homo sapiens, UniProt P35354)", "T1 construct": "purchased Eurofins (SafetyScreen44)", "assay": "SafetyScreen44", "type": "biochemical", "conditions": "enzymatic activity, 1.0E-05 M", "method": "(§1) Off-target pharmacology was evaluated using the Eurofins SafetyScreen44 in vitro panel. […] Binding assays were performed using radioligand displacement, and enzyme or uptake assays measured inhibition of control activity using validated detection methods (scintillation counting, fluorimetry or photometry). Responses were expressed as percent inhibition of control binding or activity. Based on Eurofins interpretation guidelines, effects ≥50% were considered significant, effects between 25% and 50% weak to moderate, and effects <25% were not considered biologically relevant."}, "[3]": {"target": "T2, PDE4D2 (h) (Homo sapiens, UniProt Q08499)", "T2 construct": "purchased Eurofins (SafetyScreen44)", "T2 sequence (Q08499 303-809)": "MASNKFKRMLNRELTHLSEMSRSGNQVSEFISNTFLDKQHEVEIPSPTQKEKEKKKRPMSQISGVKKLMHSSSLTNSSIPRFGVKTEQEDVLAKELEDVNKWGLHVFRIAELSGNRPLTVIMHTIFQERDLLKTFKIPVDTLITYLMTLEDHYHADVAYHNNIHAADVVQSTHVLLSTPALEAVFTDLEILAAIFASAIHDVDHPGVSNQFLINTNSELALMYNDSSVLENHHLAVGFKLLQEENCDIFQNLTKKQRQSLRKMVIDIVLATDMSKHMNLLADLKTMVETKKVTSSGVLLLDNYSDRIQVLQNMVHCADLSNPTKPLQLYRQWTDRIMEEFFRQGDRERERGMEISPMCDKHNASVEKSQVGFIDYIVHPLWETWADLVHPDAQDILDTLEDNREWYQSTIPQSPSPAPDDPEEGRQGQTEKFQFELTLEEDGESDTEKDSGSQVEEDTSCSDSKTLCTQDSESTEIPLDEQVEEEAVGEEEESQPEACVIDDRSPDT", "assay": "SafetyScreen44", "type": "biochemical", "conditions": "enzymatic activity, 1.0E-05 M", "method": "as §1"}, "[4]": {"target": "T3, PDE3A (h) (Homo sapiens, UniProt Q14432)", "T3 construct": "purchased Eurofins (SafetyScreen44)", "assay": "SafetyScreen44", "type": "biochemical", "conditions": "enzymatic activity, 1.0E-05 M", "method": "as §1"}, "[5]": {"target": "T4, COX1(h) (Homo sapiens, UniProt P23219)", "T4 construct": "purchased Eurofins (SafetyScreen44)", "T4 sequence (P23219 24-599)": "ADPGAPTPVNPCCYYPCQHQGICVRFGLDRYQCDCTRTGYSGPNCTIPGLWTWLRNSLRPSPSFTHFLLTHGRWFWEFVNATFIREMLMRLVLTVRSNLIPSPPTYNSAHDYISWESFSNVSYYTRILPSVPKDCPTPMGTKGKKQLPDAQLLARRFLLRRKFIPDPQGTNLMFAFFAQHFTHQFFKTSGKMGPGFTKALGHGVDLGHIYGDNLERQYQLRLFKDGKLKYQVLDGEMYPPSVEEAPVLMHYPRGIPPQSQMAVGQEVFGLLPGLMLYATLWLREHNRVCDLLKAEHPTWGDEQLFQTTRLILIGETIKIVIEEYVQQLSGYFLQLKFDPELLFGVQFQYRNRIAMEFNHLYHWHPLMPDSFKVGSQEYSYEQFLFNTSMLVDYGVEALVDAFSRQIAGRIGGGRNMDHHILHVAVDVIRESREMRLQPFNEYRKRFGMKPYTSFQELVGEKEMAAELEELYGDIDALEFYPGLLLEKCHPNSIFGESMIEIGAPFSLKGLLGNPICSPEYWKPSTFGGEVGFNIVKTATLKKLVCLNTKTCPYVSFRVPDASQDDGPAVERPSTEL", "assay": "SafetyScreen44", "type": "biochemical", "conditions": "enzymatic activity, 1.0E-05 M", "method": "as §1"}, "[6]": {"target": "T5, Lck kinase (h) (Homo sapiens, UniProt P06239)", "T5 construct": "purchased Eurofins (SafetyScreen44)", "T5 sequence (P06239 whole entry)": "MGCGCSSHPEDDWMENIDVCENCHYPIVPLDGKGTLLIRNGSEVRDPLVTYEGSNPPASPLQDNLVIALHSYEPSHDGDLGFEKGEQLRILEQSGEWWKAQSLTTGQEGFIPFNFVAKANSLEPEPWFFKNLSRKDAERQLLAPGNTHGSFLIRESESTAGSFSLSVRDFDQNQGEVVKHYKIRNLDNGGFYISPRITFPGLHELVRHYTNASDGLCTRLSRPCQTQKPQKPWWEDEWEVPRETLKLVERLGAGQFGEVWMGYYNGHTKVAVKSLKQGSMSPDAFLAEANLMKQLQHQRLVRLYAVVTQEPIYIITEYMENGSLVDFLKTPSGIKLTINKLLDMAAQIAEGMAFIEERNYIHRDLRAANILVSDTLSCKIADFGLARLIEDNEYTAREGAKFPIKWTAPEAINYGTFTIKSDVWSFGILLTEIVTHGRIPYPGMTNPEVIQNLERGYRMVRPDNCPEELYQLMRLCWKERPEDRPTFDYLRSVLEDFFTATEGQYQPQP", "assay": "SafetyScreen44", "type": "biochemical", "conditions": "enzymatic activity, 1.0E-05 M", "method": "as §1"}, "[7]": {"target": "T6, acetylcholinesterase (h) (Homo sapiens, UniProt P22303)", "T6 construct": "purchased Eurofins (SafetyScreen44)", "T6 sequence (P22303 32-614)": "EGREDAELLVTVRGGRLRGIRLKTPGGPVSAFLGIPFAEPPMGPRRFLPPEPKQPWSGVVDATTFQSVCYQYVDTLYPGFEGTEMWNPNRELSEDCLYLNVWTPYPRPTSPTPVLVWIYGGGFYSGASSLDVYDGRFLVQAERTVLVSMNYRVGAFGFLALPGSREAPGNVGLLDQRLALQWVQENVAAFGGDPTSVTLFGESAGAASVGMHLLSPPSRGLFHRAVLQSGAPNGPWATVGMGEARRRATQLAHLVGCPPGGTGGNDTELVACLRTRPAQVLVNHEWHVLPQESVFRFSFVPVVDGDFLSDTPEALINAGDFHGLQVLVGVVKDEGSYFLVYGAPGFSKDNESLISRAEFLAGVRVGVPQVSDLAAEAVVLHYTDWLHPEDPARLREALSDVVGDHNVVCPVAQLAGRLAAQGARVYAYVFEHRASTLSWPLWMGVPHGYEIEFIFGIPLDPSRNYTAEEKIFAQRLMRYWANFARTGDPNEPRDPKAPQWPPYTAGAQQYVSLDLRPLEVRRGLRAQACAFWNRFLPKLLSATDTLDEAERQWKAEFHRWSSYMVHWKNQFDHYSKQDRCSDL", "assay": "SafetyScreen44", "type": "biochemical", "conditions": "enzymatic activity, 1.0E-05 M", "method": "as §1"}, "[8]": {"assay": "Maximum tolerated dose study", "conditions": "animals N 1-3"}, "[9]": {"target": "CYP1A (Homo sapiens, UniProt P05177)", "assay": "CYP inhibition", "conditions": "human liver microsomes, probe phenacetin, HLM, phenacetin substrate", "quoted_text": "(§2) Cytochrome P450 inhibition was assessed in vitro using human recombinant enzymes in microsomal preparations. […] Enzyme activity was quantified by monitoring formation of substrate-specific metabolites, and percent inhibition was calculated relative to vehicle control."}, "[10]": {"system": "NorA overexpressing strain NCTC 13616", "assay": "Reserpine growth (efflux inhibition) assay", "conditions": "for AUC of growth curve: biological replicates 1-3", "quoted_text": "Statistical analyses were performed with GraphPad Prism V9.5.0. […] Unpaired t tests were used when comparing two samples in the gyrase assays."}, "[11]": {"target": "T7, Potassium Channel hERG (human) (Homo sapiens, UniProt Q12809)", "T7 construct": "purchased Eurofins (SafetyScreen44)", "assay": "SafetyScreen44", "conditions": "[3H] Dofetilide, specific binding, 1.0E-05 M", "method": "as §1"}, "[12]": {"target": "T8, ETA (h) (Homo sapiens, UniProt P25101)", "T8 construct": "purchased Eurofins (SafetyScreen44)", "assay": "SafetyScreen44", "conditions": "agonist radioligand, specific binding, 1.0E-05 M", "method": "as §1"}, "[13]": {"target": "T9, dopamine transporter (h) (Homo sapiens, UniProt Q01959)", "T9 construct": "purchased Eurofins (SafetyScreen44)", "T9 sequence (Q01959 whole entry)": "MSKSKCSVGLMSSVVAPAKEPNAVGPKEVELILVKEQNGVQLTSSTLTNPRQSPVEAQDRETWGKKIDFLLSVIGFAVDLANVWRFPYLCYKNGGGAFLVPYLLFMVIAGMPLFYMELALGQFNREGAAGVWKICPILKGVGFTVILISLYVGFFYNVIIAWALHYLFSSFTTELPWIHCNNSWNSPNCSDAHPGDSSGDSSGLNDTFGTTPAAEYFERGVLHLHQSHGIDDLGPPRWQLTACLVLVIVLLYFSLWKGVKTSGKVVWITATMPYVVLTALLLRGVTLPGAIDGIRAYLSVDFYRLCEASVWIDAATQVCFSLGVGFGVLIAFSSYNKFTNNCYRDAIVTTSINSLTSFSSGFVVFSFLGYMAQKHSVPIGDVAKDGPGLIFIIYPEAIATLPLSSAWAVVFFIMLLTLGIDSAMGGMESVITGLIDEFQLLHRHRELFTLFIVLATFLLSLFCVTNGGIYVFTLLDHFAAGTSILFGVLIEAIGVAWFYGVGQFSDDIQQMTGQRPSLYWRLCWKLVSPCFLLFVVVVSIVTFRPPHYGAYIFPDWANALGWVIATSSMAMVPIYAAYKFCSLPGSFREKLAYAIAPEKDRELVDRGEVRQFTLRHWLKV", "assay": "SafetyScreen44", "conditions": "antagonist radioligand, specific binding, 1.0E-05 M", "method": "as §1"}, "[14]": {"target": "T10, 5-HT3 (h) (Homo sapiens, UniProt P46098)", "T10 construct": "purchased Eurofins (SafetyScreen44)", "T10 sequence (P46098 24-478)": "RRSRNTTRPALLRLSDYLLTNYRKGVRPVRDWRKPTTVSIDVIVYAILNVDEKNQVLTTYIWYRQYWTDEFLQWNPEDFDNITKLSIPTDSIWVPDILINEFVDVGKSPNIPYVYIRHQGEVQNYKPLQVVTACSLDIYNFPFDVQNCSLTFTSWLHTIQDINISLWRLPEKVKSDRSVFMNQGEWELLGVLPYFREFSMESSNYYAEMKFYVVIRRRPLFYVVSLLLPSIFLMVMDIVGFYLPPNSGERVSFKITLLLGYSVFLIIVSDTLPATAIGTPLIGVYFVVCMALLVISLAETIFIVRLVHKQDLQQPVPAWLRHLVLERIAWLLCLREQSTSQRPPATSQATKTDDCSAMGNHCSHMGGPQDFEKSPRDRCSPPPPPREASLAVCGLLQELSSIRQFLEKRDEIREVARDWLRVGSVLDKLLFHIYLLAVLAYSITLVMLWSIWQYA", "assay": "SafetyScreen44", "conditions": "antagonist radioligand, specific binding, 1.0E-05 M", "method": "as §1"}, "[15]": {"target": "T11, beta 2 (h) (Homo sapiens, UniProt P07550)", "T11 construct": "purchased Eurofins (SafetyScreen44)", "assay": "SafetyScreen44", "conditions": "antagonist radioligand, specific binding, 1.0E-05 M", "method": "as §1"}, "[16]": {"target": "T12, alpha 2A (h) (Homo sapiens, UniProt P08913)", "T12 construct": "purchased Eurofins (SafetyScreen44)", "assay": "SafetyScreen44", "conditions": "antagonist radioligand, specific binding, 1.0E-05 M", "method": "as §1"}, "[17]": {"target": "T13, V1a (h) (Homo sapiens, UniProt P37288)", "T13 construct": "purchased Eurofins (SafetyScreen44)", "T13 sequence (P37288 whole entry)": "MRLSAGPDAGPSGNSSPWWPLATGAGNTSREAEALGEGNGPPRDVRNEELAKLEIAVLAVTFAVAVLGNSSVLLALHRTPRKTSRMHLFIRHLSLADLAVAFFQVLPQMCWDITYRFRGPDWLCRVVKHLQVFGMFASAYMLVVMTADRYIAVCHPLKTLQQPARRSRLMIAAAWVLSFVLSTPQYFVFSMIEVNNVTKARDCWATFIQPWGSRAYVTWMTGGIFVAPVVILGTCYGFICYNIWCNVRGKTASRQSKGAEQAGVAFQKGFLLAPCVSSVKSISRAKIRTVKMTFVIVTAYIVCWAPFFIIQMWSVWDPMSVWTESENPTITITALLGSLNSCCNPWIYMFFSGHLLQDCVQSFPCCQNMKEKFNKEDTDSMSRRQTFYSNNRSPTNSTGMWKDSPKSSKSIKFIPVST", "assay": "SafetyScreen44", "conditions": "agonist radioligand, specific binding, 1.0E-05 M", "method": "as §1"}, "[18]": {"target": "T14, M2 (h) (Homo sapiens, UniProt P08172)", "T14 construct": "purchased Eurofins (SafetyScreen44)", "assay": "SafetyScreen44", "conditions": "antagonist radioligand, specific binding, 1.0E-05 M", "method": "as §1"}, "[19]": {"target": "T15, 5-HT1B (Rattus norvegicus, UniProt P28564)", "T15 construct": "purchased Eurofins (SafetyScreen44)", "assay": "SafetyScreen44", "conditions": "antagonist radioligand, specific binding, 1.0E-05 M", "method": "as §1"}, "[20]": {"target": "T16, 5-HT transporter (h) (Homo sapiens, UniProt P31645)", "T16 construct": "purchased Eurofins (SafetyScreen44)", "T16 sequence (P31645 whole entry)": "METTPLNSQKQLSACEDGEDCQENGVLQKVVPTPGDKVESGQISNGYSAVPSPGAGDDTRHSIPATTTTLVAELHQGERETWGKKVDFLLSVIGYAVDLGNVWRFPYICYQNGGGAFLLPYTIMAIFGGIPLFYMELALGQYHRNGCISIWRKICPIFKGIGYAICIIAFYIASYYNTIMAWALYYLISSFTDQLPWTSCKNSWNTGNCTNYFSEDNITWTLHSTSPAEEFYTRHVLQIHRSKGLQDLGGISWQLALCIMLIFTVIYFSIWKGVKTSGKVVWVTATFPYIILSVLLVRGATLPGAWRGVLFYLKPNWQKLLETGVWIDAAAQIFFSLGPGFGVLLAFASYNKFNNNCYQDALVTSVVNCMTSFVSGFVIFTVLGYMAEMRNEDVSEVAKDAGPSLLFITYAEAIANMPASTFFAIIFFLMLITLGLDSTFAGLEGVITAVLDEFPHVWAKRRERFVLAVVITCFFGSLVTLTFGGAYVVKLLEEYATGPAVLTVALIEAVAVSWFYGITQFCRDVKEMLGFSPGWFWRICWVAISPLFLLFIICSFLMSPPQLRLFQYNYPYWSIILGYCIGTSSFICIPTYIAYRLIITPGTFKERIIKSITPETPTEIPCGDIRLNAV", "assay": "SafetyScreen44", "conditions": "antagonist radioligand, specific binding, 1.0E-05 M", "method": "as §1"}, "[21]": {"target": "T17, MAO-A (Rattus norvegicus, UniProt P21396)", "T17 construct": "purchased Eurofins (SafetyScreen44)", "assay": "SafetyScreen44", "conditions": "antagonist radioligand, specific binding, 1.0E-05 M", "method": "as §1"}, "[22]": {"target": "T18, H2 (h) (Homo sapiens, UniProt P25021)", "T18 construct": "purchased Eurofins (SafetyScreen44)", "assay": "SafetyScreen44", "conditions": "antagonist radioligand, specific binding, 1.0E-05 M", "method": "as §1"}, "[23]": {"system": "KV channel", "assay": "SafetyScreen44", "conditions": "antagonist radioligand, specific binding, 1.0E-05 M", "method": "as §1"}, "[24]": {"target": "T19, beta 1 (h) (Homo sapiens, UniProt P08588)", "T19 construct": "purchased Eurofins (SafetyScreen44)", "assay": "SafetyScreen44", "conditions": "agonist radioligand, specific binding, 1.0E-05 M", "method": "as §1"}, "[25]": {"target": "T20, CB1 (h) (Homo sapiens, UniProt P21554)", "T20 construct": "purchased Eurofins (SafetyScreen44 panel) assay 36", "T20 sequence (P21554 whole entry)": "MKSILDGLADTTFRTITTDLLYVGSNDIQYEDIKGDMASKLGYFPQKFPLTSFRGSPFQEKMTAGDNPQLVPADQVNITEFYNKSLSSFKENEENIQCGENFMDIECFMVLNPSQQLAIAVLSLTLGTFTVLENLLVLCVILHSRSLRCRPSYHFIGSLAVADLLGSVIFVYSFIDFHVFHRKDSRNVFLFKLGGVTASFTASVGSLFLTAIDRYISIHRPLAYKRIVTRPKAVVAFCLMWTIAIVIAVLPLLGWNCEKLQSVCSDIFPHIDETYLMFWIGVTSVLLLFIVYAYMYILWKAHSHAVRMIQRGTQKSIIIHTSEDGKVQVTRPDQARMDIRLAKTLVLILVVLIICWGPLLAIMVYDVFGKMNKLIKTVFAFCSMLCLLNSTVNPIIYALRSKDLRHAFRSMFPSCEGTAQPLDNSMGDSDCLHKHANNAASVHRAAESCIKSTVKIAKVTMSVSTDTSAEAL", "assay": "SafetyScreen44", "conditions": "agonist radioligand, specific binding, 1.0E-05 M", "method": "as §1"}, "[26]": {"system": "CYP3A", "assay": "CYP inhibition", "conditions": "human, human liver microsomes, CYP3A inhibition, HLM", "quoted_text": "as §2"}, "[27]": {"assay": "in vivo", "conditions": "male, ICR, mouse, po"}}, "note": "Values joined by “and” are separate entries in the source; they are usually repeats but may differ in a detail not shown here. Equal values may be shown once.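 Wherever B.W. is given: male ICR mice given oral doses under a stepwise escalation scheme to find the highest tolerated dose.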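 Wherever MTD is given: male ICR mice given oral doses under a stepwise escalation scheme to find the highest tolerated dose.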"}
{"smiles": "C[C@H]1COc2c(N3CC[C@@H](Nc4ncccn4)C3)c(F)cc3c(=O)c(C(=O)O)cn1c23", "note": "[Compound 46, (S)-9-Fluoro-3-methyl-7-oxo-10-((R)-3-(pyrimidin-2-ylamino)pyrrolidin-1-yl)-2,3-dihydro-7H-[1,4]oxazino[2,3,4-ij]quinoline-6-carboxylic acid]", "values": [{"measurement": "Agar MIC", "setting": "[1]", "result": 0.5, "unit": "µg/mL"}, {"measurement": "% Inhibition", "setting": "[2]", "result": 8.111, "unit": "%"}, {"measurement": "inhibition at 10 µM", "setting": "[3]", "result": 14.8, "unit": "%"}, {"measurement": "% Inhibition", "setting": "[4]", "result": 7.502, "unit": "%"}, {"measurement": "% Inhibition", "setting": "[5]", "result": "30.3185% and 30.3%"}, {"measurement": "% Inhibition", "setting": "[6]", "result": -2.891, "unit": "%"}, {"measurement": "% Inhibition", "setting": "[7]", "result": "32.9861% and 33.0%"}, {"measurement": "B.W.", "setting": "[8]; PO 100 mg/kg, 72 hrs after final dose, 100 mg/kg", "result": "25 and 27"}, {"measurement": "B.W.", "setting": "[8]; PO 100 mg/kg, Pre-dose, 100 mg/kg", "result": "24 and 25"}, {"measurement": "B.W.", "setting": "[8]; PO 200 mg/kg, 72 hrs after final dose, 200 mg/kg", "result": "26 and 27"}, {"measurement": "B.W.", "setting": "[8]; PO 200 mg/kg, Pre-dose, 200 mg/kg", "result": "24 and 23"}, {"measurement": "B.W.", "setting": "[8]; PO 400 mg/kg, 72 hrs after final dose, 400 mg/kg", "result": "26 and 22 and 24"}, {"measurement": "B.W.", "setting": "[8]; PO 400 mg/kg, Pre-dose, 400 mg/kg", "result": "21 and 20 and 22"}, {"measurement": "inhibition at 10 µM", "setting": "[9]", "result": 9.6, "unit": "%"}, {"measurement": "AUC of growth curve", "setting": "[10]; 0.25 MIC + R (reserpine)", "result": "3.991 and 3.857 and 2.348"}, {"measurement": "AUC of growth curve", "setting": "[10]; 0.25 MIC", "result": "5.243 and 5.279 and 3.696"}, {"measurement": "AUC of growth curve", "setting": "[10]; 0.5 MIC + R (reserpine)", "result": "3.930 and 3.864 and 2.013"}, {"measurement": "AUC of growth curve", "setting": "[10]; 0.5 MIC", "result": "4.798 and 3.349 and 3.713"}, {"measurement": "efflux liability in reserpine assay", "setting": "[10]; 0.5x MIC with vs without reserpine", "result": "minimal shift"}, {"measurement": "% Inhibition", "setting": "[11]", "result": -0.2461, "unit": "%"}, {"measurement": "% Inhibition", "setting": "[12]", "result": -5.236, "unit": "%"}, {"measurement": "% Inhibition", "setting": "[13]", "result": 10.0257, "unit": "%"}, {"measurement": "% Inhibition", "setting": "[14]", "result": -4.708, "unit": "%"}, {"measurement": "% Inhibition", "setting": "[15]", "result": 11.3086, "unit": "%"}, {"measurement": "inhibition at 10 µM", "setting": "[16]", "result": 4.48, "unit": "%"}, {"measurement": "% Inhibition", "setting": "[17]", "result": -12.5662, "unit": "%"}, {"measurement": "% Inhibition", "setting": "[18]", "result": 1.066, "unit": "%"}, {"measurement": "% Inhibition", "setting": "[19]", "result": -16.7063, "unit": "%"}, {"measurement": "% Inhibition", "setting": "[20]", "result": -16.9663, "unit": "%"}, {"measurement": "% Inhibition", "setting": "[21]", "result": -9.13, "unit": "%"}, {"measurement": "% Inhibition", "setting": "[22]", "result": -40.1709, "unit": "%"}, {"measurement": "% Inhibition", "setting": "[23]", "result": -4.644, "unit": "%"}, {"measurement": "% Inhibition", "setting": "[24]", "result": 1.921, "unit": "%"}, {"measurement": "% Inhibition", "setting": "[25]", "result": 1.857, "unit": "%"}, {"measurement": "inhibition at 10 µM", "setting": "[26]; probe midazolam, midazolam substrate", "result": 25.2, "unit": "%"}, {"measurement": "inhibition at 10 µM", "setting": "[26]; probe testosterone, testosterone substrate", "result": 6.5, "unit": "%"}, {"measurement": "MTD at 72 h", "setting": "[27]", "result": "≥ 400", "unit": "mg/kg"}]}
